{
  "source": "patent US10821115B2",
  "about": "“Compounds that inhibit Mcl-1 protein” (priority 2017, dated 2020)",
  "key": {"[1]": {"molecular_target": "recombinant human Mcl-1 (residues 171-327) / Bim interaction (Homo sapiens (Human), UniProt Q07820)", "sequence (Q07820 171-327)": "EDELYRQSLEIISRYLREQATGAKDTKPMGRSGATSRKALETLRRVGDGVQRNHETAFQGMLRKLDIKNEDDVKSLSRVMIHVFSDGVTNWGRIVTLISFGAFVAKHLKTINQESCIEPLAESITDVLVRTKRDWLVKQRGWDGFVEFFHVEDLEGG", "experiment": "biochemical", "format": "binding", "details": "read-out: Mcl-1 HTRF IC50"}, "[2]": {"test_system": "human multiple myeloma cell line, OPM-2", "experiment": "Cell viability assay (OPM-2 10 FBS), CellTiter-Glo", "format": "cell-based", "procedure,_shortened": "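3000 cells/well, RPMI 1640 + 10% FBS; serial compound dilutions, 16 h, 37 °C/5% CO2.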"}, "[3]": {"details": "TR-FRET, Mcl-1(171-327) / biotin-Bim (51-76)"}, "[4]": {"details": "Homo sapiens, OPM-2, 16 h, read-out: OPM-2 10% FBS IC50 IP, OPM-2 cells, 10% FBS, 16 h, CellTiter-Glo"}, "[5]": {"details": "read-out: OPM-2 10% FBS IC50 IP, OPM-2 cells, 10% FBS, 16 h, CellTiter-Glo"}, "[6]": {"details": "0.1 nM Mcl-1(171-327), 0.05 nM biotin-Bim (51-76)"}, "[7]": {"details": "Homo sapiens, OPM-2, 16 h, read-out: OPM-2 10% FBS IC50 IP, OPM-2 cells, 10% FBS, 16 h incubation"}},
  "note": "Where two headings read alike, the source gives them in different places.",
  "data": [
    {"smiles": "C[C@@H]1[C@@H](C)C/C=C/[C@](O)(C(C)(C)C#N)[C@@H]2CC[C@H]2CN2C[C@@]3(CCCc4cc(Cl)ccc43)COc3ccc(cc32)C(=O)NS1(=O)=O", "note": "[Example 100059, 2-((1S,3′R,6′R,7′R,8′E,11′S,12′R)-6-chloro-7′-hydroxy-11′,12′-dimethyl-13′,13′-dioxido-15′-oxo-3,4-dihydro-2H-spiro[naphthalene-1,22′-[20]oxa[13]thia[1,14]diazatetracyclo [14.7.2.0~3,6~.0~19,24~]pentacosa[8,16,18,24]tetraen]-7′-yl)-2-methylpropanenitrile]", "values": [
      {"measurement": "IC50", "setting": "[1]; [3]", "value": 11.9, "unit": "nM"},
      {"measurement": "IC50", "setting": "[2]; [4]", "value": 3450, "unit": "nM"}
    ]},
    {"smiles": "COCCN(C)C(=O)C[C@]1(O)CCC[C@H](C)[C@@H](C)S(=O)(=O)NC(=O)c2ccc3c(c2)N(C[C@@H]2CC[C@H]21)C[C@@]1(CCCc2cc(Cl)ccc21)CO3", "note": "[Example 100141, 2-((1S,3′R,6′R,7′R,11′S,12′R)-6-chloro-7′-hydroxy-11′,12′-dimethyl-13′,13′-dioxido-15′-oxo-3,4-dihydro-2H-spiro[naphthalene-1,22′-[20]oxa[13]thia[1,14]diazatetracyclo [14.7.2.0~3,6~.0~19,24~]pentacosa[16,18,24]trien]-7′-yl)-N-(2-methoxyethyl)-N-methylacetamide]", "values": [
      {"measurement": "IC50", "setting": "[1]; [3]", "value": 1.06, "unit": "nM"},
      {"measurement": "IC50", "setting": "[2]; [5]", "value": 1370, "unit": "nM"}
    ]},
    {"smiles": "CO[C@]1(C)CCC[C@H](C)[C@@H](C)S(=O)(=O)NC(=O)c2ccc3c(c2)N(C[C@@H]2CC[C@H]21)C[C@@]1(CCCc2cc(Cl)ccc21)CO3", "note": "(single isomer, unassigned) [Example 100212]", "values": [
      {"measurement": "IC50", "setting": "[1]; [3]", "value": 0.901, "unit": "nM"},
      {"measurement": "IC50", "setting": "[2]; [5]", "value": 1620, "unit": "nM"}
    ]},
    {"smiles": "CO[C@]1(CN2CCCCC2)/C=C/C[C@H](C)[C@@H](C)S(=O)(=O)NC(=O)c2ccc3c(c2)N(C[C@@H]2CC[C@H]21)C[C@@]1(CCCc2cc(Cl)ccc21)CO3", "note": "[Example 74, (1S,3′R,6′R,7′R,8′E,11′S,12′R)-6-chloro-7′-methoxy-11′,12′-dimethyl-7′-(1-piperidinylmethyl)-3,4-dihydro-2H,15′H-spiro[naphthalene-1,22′-[20]oxa[13]thia[1,14]diazatetracyclo [14.7.2.0~3,6~.0~19,24~]pentacosa[8,16,18,24]tetraen]-15′-one 13′,13′-dioxide]", "values": [
      {"measurement": "IC50", "setting": "[1]; [6]", "value": 2.29, "unit": "nM"},
      {"measurement": "IC50", "setting": "[2]; [7]", "value": 3360, "unit": "nM"}
    ]},
    {"smiles": "CO[C@]1(CN2CCc3ncncc3C2)/C=C/C[C@H](C)[C@@H](C)S(=O)(=O)NC(=O)c2ccc3c(c2)N(C[C@@H]2CC[C@H]21)C[C@@]1(CCCc2cc(Cl)ccc21)CO3", "note": "[Example 222, (1S,3′R,6′R,7′R,8′E,11′S,12′R)-6-chloro-7′-(7,8-dihydropyrido[4,3-d]pyrimidin-6(5H)-ylmethyl)-7′-methoxy-11′,12′-dimethyl-3,4-dihydro-2H,15′H-spiro[naphthalene-1,22′-[20]oxa[13]thia[1,14]diazatetracyclo [14.7.2.0~3,6~.0~19,24~]pentacosa[8,16,18,24]tetraen]-15′-one 13′,13′-dioxide]", "values": [
      {"measurement": "IC50", "setting": "[1]; [6]", "value": 0.08, "unit": "nM"},
      {"measurement": "IC50", "setting": "[2]; [7]", "value": 118, "unit": "nM"}
    ]},
    {"smiles": "C[C@@H]1[C@@H](C)C/C=C/[C@](O)(CCO)[C@@H]2CC[C@H]2CN2C[C@@]3(CCCc4cc(Cl)ccc43)COc3ccc(cc32)C(=O)NS1(=O)=O", "note": "[Example 100175, (1S,3′R,6′R,7′R,8′E,11′S,12′R)-6-chloro-7′-hydroxy-7′-(2-hydroxyethyl)-11′,12′-dimethyl-3,4-dihydro-2H,15′H-spiro[naphthalene-1,22′-[20]oxa[13]thia[1,14]diazatetracyclo [14.7.2.0~3,6~.0~19,24~]pentacosa[8,16,18,24]tetraen]-15′-one 13′,13′-dioxide]", "values": [
      {"measurement": "IC50", "setting": "[1]; [3]", "value": 0.149, "unit": "nM"},
      {"measurement": "IC50", "setting": "[2]; [4]", "value": 452, "unit": "nM"}
    ]},
    {"smiles": "C[C@@H]1[C@@H](C)CCC[C@@](O)(CS(=O)(=O)N2CCN(C)CC2)[C@@H]2CC[C@H]2CN2C[C@@]3(CCCc4cc(Cl)ccc43)COc3ccc(cc32)C(=O)NS1(=O)=O", "note": "[Example 100139, (1S,3′R,6′R,7′S,11′S,12′R)-6-chloro-7′-hydroxy-11′,12′-dimethyl-7′-(((4-methyl-1-piperazinyl)sulfonyl)methyl)-3,4-dihydro-2H,15′H-spiro[naphthalene-1,22′-[20]oxa[13]thia[1,14]diazatetracyclo [14.7.2.0~3,6~.0~19,24~]pentacosa[16,18,24]trien]-15′-one 13′,13′-dioxide]", "values": [
      {"measurement": "IC50", "setting": "[1]; [3]", "value": 2.58, "unit": "nM"},
      {"measurement": "IC50", "setting": "[2]; [5]", "value": 974, "unit": "nM"}
    ]},
    {"smiles": "C[C@@H]1[C@@H](C)CCC[C@@]2(CCO2)[C@@H]2CC[C@H]2CN2C[C@@]3(CCCc4cc(Cl)ccc43)COc3ccc(cc32)C(=O)NS1(=O)=O", "note": "[Example 100228, (1S,3′R,6′R,7′R,11′S,12′R)-6-chloro-11′,12′-dimethyl-3,4-dihydro-2H,15′H-dispiro[naphthalene-1,22′-[20]oxa[13]thia[1,14]diazatetracyclo [14.7.2.0~3,6~.0~19,24~]pentacosa[16,18,24]triene-7′,2″-oxetan]-15′-one 13′,13′-dioxide]", "values": [
      {"measurement": "IC50", "setting": "[1]; [3]", "value": 0.558, "unit": "nM"},
      {"measurement": "IC50", "setting": "[2]; [4]", "value": 3300, "unit": "nM"}
    ]},
    {"smiles": "COCCO[C@]1(CN2CCN3CCCC[C@@H]3C2)/C=C/C[C@H](C)[C@@H](C)S(=O)(=O)NC(=O)c2ccc3c(c2)N(C[C@@H]2CC[C@H]21)C[C@@]1(CCCc2cc(Cl)ccc21)CO3", "note": "[Example 152, (1S,3′R,6′R,7′R,8′E,11′S,12′R)-6-chloro-7′-(2-methoxyethoxy)-11′,12′-dimethyl-7′-((9aR)-octahydro-2H-pyrido[1,2-a]pyrazin-2-ylmethyl)-3,4-dihydro-2H,15′H-spiro[naphthalene-1,22′-[20]oxa[13]thia[1,14]diazatetracyclo [14.7.2.0~3,6~.0~19,24~]pentacosa[8,16,18,24]tetraen]-15′-one 13′,13′-dioxide]", "values": [
      {"measurement": "IC50", "setting": "[1]; [6]", "value": 0.092, "unit": "nM"},
      {"measurement": "IC50", "setting": "[2]; [7]", "value": 110, "unit": "nM"}
    ]},
    {"smiles": "CC(C)CO[C@@]1(CN2CCN3CCOC[C@@H]3C2)/C=C/C[C@H](C)[C@@H](C)S(=O)(=O)NC(=O)c2ccc3c(c2)N(C[C@@H]2CC[C@H]21)C[C@@]1(CCCc2cc(Cl)ccc21)CO3", "note": "[Example 349, (1S,3′R,6′R,7′S,8′E,11′S,12′R)-6-chloro-7′-((9aS)-hexahydropyrazino[2,1-c][1,4]oxazin-8(1H)-ylmethyl)-11′,12′-dimethyl-7′-(2-methylpropoxy)-3,4-dihydro-2H,15′H-spiro[naphthalene-1,22′-[20]oxa[13]thia[1,14]diazatetracyclo [14.7.2.0~3,6~.0~19,24~]pentacosa[8,16,18,24]tetraen]-15′-one 13′,13′-dioxide]", "values": [
      {"measurement": "IC50", "setting": "[1]; [6]", "value": 1.61, "unit": "nM"},
      {"measurement": "IC50", "setting": "[2]; [7]", "value": 7790, "unit": "nM"}
    ]},
    {"smiles": "C[C@@H]1[C@@H](C)C/C=C/[C@@](O)(C#CCCc2ccccn2)[C@@H]2CC[C@H]2CN2C[C@@]3(CCCc4cc(Cl)ccc43)COc3ccc(cc32)C(=O)NS1(=O)=O", "note": "[Example 100440, (1S,3′R,6′R,7′S,8′E,11′S,12′R)-6-chloro-7′-hydroxy-11′,12′-dimethyl-7′-(4-(2-pyridinyl)-1-butyn-1-yl)-3,4-dihydro-2H,15′H-spiro[naphthalene-1,22′-[20]oxa[13]thia[1,14]diazatetracyclo [14.7.2.0~3,6~.0~19,24~]pentacosa[8,16,18,24]tetraen]-15′-one 13′,13′-dioxide]", "values": [
      {"measurement": "IC50", "setting": "[1]; [3]", "value": 0.398, "unit": "nM"},
      {"measurement": "IC50", "setting": "[2]; [5]", "value": 354, "unit": "nM"}
    ]},
    {"smiles": "CO[C@]1(CN2CCC(N3CCOCC3)CC2)/C=C/C[C@H](C)[C@@H](C)S(=O)(=O)NC(=O)c2ccc3c(c2)N(C[C@@H]2CC[C@H]21)C[C@@]1(CCCc2cc(Cl)ccc21)CO3", "note": "[Example 85, (1S,3′R,6′R,7′R,8′E,11′S,12′R)-6-chloro-7′-methoxy-11′,12′-dimethyl-7′-((4-(4-morpholinyl)-1-piperidinyl)methyl)-3,4-dihydro-2H,15′H-spiro[naphthalene-1,22′-[20]oxa[13]thia[1,14]diazatetracyclo [14.7.2.0~3,6~.0~19,24~]pentacosa[8,16,18,24]tetraen]-15′-one 13′,13′-dioxide]", "values": [
      {"measurement": "IC50", "setting": "[1]; [6]", "value": 0.491, "unit": "nM"},
      {"measurement": "IC50", "setting": "[2]; [7]", "value": 274, "unit": "nM"}
    ]},
    {"smiles": "C=C(C)[C@@H](O)C[C@]1(OC)/C=C/C[C@H](C)[C@@H](C)S(=O)(=O)NC(=O)c2ccc3c(c2)N(C[C@@H]2CC[C@H]21)C[C@@]1(CCCc2cc(Cl)ccc21)CO3", "note": "[Example 100471, (1S,3′R,6′R,7′S,8′E,11′S,12′R)-6-chloro-7′-((2S)-2-hydroxy-3-methyl-3-buten-1-yl)-7′-methoxy-11′,12′-dimethyl-3,4-dihydro-2H,15′H-spiro[naphthalene-1,22′-[20]oxa[13]thia[1,14]diazatetracyclo [14.7.2.0~3,6~.0~19,24~]pentacosa[8,16,18,24]tetraen]-15′-one 13′,13′-dioxide]", "values": [
      {"measurement": "IC50", "setting": "[1]", "value": 0.281, "unit": "nM"},
      {"measurement": "IC50", "setting": "[2]; [5]", "value": 299, "unit": "nM"}
    ]},
    {"smiles": "C[C@@H]1[C@@H](C)C/C=C/[C@@](O)(C#CCN2CCCCC2)[C@@H]2CC[C@H]2CN2C[C@@]3(CCCc4cc(Cl)ccc43)COc3ccc(cc32)C(=O)NS1(=O)=O", "note": "[Example 100421, (1S,3′R,6′R,7′S,8′E,11′S,12′R)-6-chloro-7′-hydroxy-11′,12′-dimethyl-7′-(3-(1-piperidinyl)-1-propyn-1-yl)-3,4-dihydro-2H,15′H-spiro[naphthalene-1,22′-[20]oxa[13]thia[1,14]diazatetracyclo [14.7.2.0~3,6~.0~19,24~]pentacosa[8,16,18,24]tetraen]-15′-one 13′,13′-dioxide]", "values": [
      {"measurement": "IC50", "setting": "[1]; [3]", "value": 3.93, "unit": "nM"},
      {"measurement": "IC50", "setting": "[2]; [5]", "value": 4930, "unit": "nM"}
    ]},
    {"smiles": "CO[C@@]1(CC(=O)N2CCN(C)C[C@H]2C)/C=C/C[C@H](C)[C@@H](C)S(=O)(=O)NC(=O)c2ccc3c(c2)N(C[C@@H]2CC[C@H]21)C[C@@]1(CCCc2cc(Cl)ccc21)CO3", "note": "[Example 100417, (1S,3′R,6′R,7′S,8′E,11′S,12′R)-6-chloro-7′-(2-((2R)-2,4-dimethyl-1-piperazinyl)-2-oxoethyl)-7′-methoxy-11′,12′-dimethyl-3,4-dihydro-2H,15′H-spiro[naphthalene-1,22′-[20]oxa[13]thia[1,14]diazatetracyclo [14.7.2.0~3,6~.0~19,24~]pentacosa[8,16,18,24]tetraen]-15′-one 13′,13′-dioxide]", "values": [
      {"measurement": "IC50", "setting": "[1]; [3]", "value": 0.345, "unit": "nM"},
      {"measurement": "IC50", "setting": "[2]; [4]", "value": 379, "unit": "nM"}
    ]}
  ]
}
